What was measured:
nitrotyrosine = assay: Immunoblot of nitrotyrosine in hind limb tissue; format: in vivo, mouse; settings: ischemic hind limbs of type 1 diabetic mice
Description: Gastrocnemius samples were stored at −80° C. and then mechanically homogenized in ice-cold lysis buffer containing 150 mmol/L NaCl, 200 mmol/L Tris-HCl (pH 8.0), 1% Triton X-100, 0.5% deoxycholic acid, 0.1% SDS, N-ethylmaleimide (25 mM) and protease inhibitors (cOmplete™ EDTA-free, Roche Diagnostics). 30 μg of protein lysate was denatured and run under reducing conditions on SDS-PAGE (Bolt™ pre-cast gels and reagents, Thermofisher Scientific, Australia) and transferred onto Immobilon polyvinylidene fluoride membrane (Merck Millipore, Australia). Membranes were incubated in primary antibodies directed at determining protein expression of the following: Nox isoforms (anti-Nox 2, 1:5000; Abcam, Australia; anti-Nox-4, 1:5000; Abcam, Australia); reactive nitrogen species (anti-nitrotyrosine, 1:1000; Abcam, Australia); and both expression and phosphorylation of eNOS (anti Phospho eNOS serine 1177, 1:1000, Cell Signaling Technology, USA; anti-eNOS 1:1000, BD Biosciences, USA) and Akt (anti Phospho Akt 1:1000, Akt 1:1000, Cell Signaling Technology, USA). Specific secondary antibodies recognizing rabbit or mouse primary antibodies were used (IRDye®, Licor; 1:20,000, USA). Membranes were detected using an Odyssey imaging platform (Licor, USA).

eNOS = eNOS immunoprecipitation, glutathionylation of eNOS in ischemic hind limb; format: in vivo, mouse; settings: ischemic limbs of type 1 diabetes mice
Description: Gastronemius protein (500 μg) extracted as above was used for co-immunoprecipitation with eNOS. Protein G dynabeads (1.5 mg/ml, 2.8 μm beads, Thermofisher Scientific, Australia) were covalently conjugated with mouse anti-eNOS antibody (BD Biosciences, 1 μg) using bis(sulfosuccinimidyl) suberate amine-amine cross-linking solution (5 mM; ThermoFisher Scientific, Australia). Beads were washed with PBS and incubated with protein lysate overnight at 4° C. IgG controls were prepared using anti-IgG antibodies conjugated to dynabeads using an identical process. Protein was eluted from beads using LDS buffer, denatured and run in non-reduced conditions on 8% Bis-Tris gels using SDS-PAGE and transferred onto polyvinylidene fluoride membrane as above. Expression of oxidized glutathione was detected using mouse anti-glutathione antibody (Virogen, 1:1000). eNOS was detected using rabbit anti-eNOS (Cell Signaling Technology, 1:1000, Australia). Odyssey detection system was used to visualize bands as above.

HUVECs [1] = assay: Tubule formation in HUVECs on reduced growth factor extracellular matrix; format: cell-based, human; settings: 10 and 100 ng/ml compared to the control
Description: Human umbilical vein endothelial cells (HUVECs; Lonza C2519AS, pooled source, Australia) were grown using standard cell culture conditions in endothelial cell growth medium (EGM Plus®, containing 2% fetal bovine serum, Lonza, Australia). All cells were regularly confirmed to be mycoplasma negative. Two different pooled source cell lines were used in experiments and all were used within passages 2-4. Human adult dermal microvascular endothelial cells were also obtained from Lonza (CC-2543, Lonza Australia) and cultured as above but using endothelial growth medium 2-MV bulletkit. Endothelial colony forming cells (ECFCs) were derived from the peripheral blood of participants in the BioHEART study. This registered study (ACTRN12618001322224) complies with the Declaration of Helsinki and the study protocol and design has been approved by the Northern Sydney Local Health District Human Research Ethics Committee (HREC/17/HAWKE/343). […]
Once they were ˜70% confluent, cells were re-suspended in diluted EGM Plus® (1:3) and plated on reduced-growth factor extracellular matrix (15 mg/ml, Cultrex, Trevigen, USA) at a density of 1.5×10^4 cells/cm^2. […] Cells were incubated in an EVOS FL Auto Imaging system for 16 hours and tubule formation recorded every hour. Optimal tube formation occurred at the 8-hour timepoint; tubule number at this point was quantified manually using NIH Image J software. […]

superoxide = assay: Superoxide generation by lucigenin enhanced chemiluminescence in hind limb tissue; format: in vivo, mouse; settings: after 14 days of infusion
Description: Hind limb tissue including the gastrocnemius and adductor muscles were isolated and collected at 14 or 28 days. Tissues were separated and implanted in OCT or placed in cryovials and snap-frozen in liquid nitrogen or were fixed in 10% formalin for 24-hours and then moved to 70% ethanol for storage.
Frozen adductor tissue was prepared for lucigenin-enhanced chemiluminescence assay by homogenising in lysis buffer (250 mM sucrose in phosphate-buffered saline (mM: 129 NaCl, 7 Na2HPO4, 3 NaH2PO4·2H2O, pH 7.4, with protease inhibitors (cOmplete™ EDTA-free, Roche Diagnostics). Sample was added to opaque 96-well plates in the presence of lucigenin (20 μmol/1 N,N′-Dimethyl-9,9′-biacridinium dinitrate) and NADPH (100 μM; β-Nicotinamide adenine dinucleotide 2′-phosphate reduced tetrasodium salt hydrate). The reaction was conducted at room temperature and tracked using a luminometer (Veritas, Turner Biosystems, USA) with an average measurement taken from 20 cycles, as described in Bubb et al., (2018, Microcirulation, e12501). Replicates of each sample were treated with manganese TMPyP (Merck Millipore, Australia, a cell-permeable superoxide dismutase mimetic, 30 μmol/L), during the assay and any signal was subtracted from the total signal as non-superoxide background signal. Superoxide production was normalized to protein concentration or cell count.

HUVECs [2] = assay: Cell migration by scratch assay in HUVECs (CL 316,243); format: cell-based, human

C[C@H](Cc1ccc2c(c1)OC(C(=O)[O-])(C(=O)[O-])O2)NC[C@H](O)c1cccc(Cl)c1.[Na+].[Na+] [CL 316,243]
decrease of nitrotyrosine protein levels (nitrotyrosine): > 70% | glutathionylation of eNOS (eNOS): largely abolished | number of tubules formed (HUVECs [1]): significantly increased | superoxide bioavailability in the ischemic limb (superoxide): significantly lower | closure of denuded zone (HUVECs [2]; by 24 hours at the higher concentrations): > 90% | migration of HUVECs into the denuded zone (HUVECs [2]; scratch assay over 24 hours, 1-1000 ng/ml, vs vehicle control): significantly increased migration

From patent publication US20240148701A1, “WOULD HEALING METHODS” (The University of Sydney, priority 2021, published 2024)
